Results taken from the supplement of paper PMC10307832.

Legend:
Test in all cases: relative viability (nuclei count vs DMSO), 5 days (fraction); higher = more cells survive
[1] = compound: C[C@]1(O)C[C@@H](c2nc(-c3ccc4ccc(-c5ccccc5)nc4c3)c3c(N)nccn32)C1 [Linsitinib] + O=C(CCCCCCC(=O)Nc1ccccc1)NO [Vorinostat] (partner 1 µM)
Summary of the method: (§1)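 Dosing by pin tool came one day after lung cancer cell lines were seeded in 1536-well plates, using either one drug or a fixed anchor-drug dose plus five library-drug doses (not always all listed) in √10 steps. After 5 days, nuclei were counted on 4× images. Relative viability is treated-well nuclei count divided by vehicle-well nuclei count, and values are medians of duplicate plates.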

[2] = compound: C[C@]1(O)C[C@@H](c2nc(-c3ccc4ccc(-c5ccccc5)nc4c3)c3c(N)nccn32)C1 [Linsitinib] + NC(=O)Nc1cc(-c2cccc(F)c2)sc1C(=O)N[C@H]1CCCNC1 [AZD7762] (partner 0.2 µM)
Summary of the method: as §1

[3] = compound: C[C@]1(O)C[C@@H](c2nc(-c3ccc4ccc(-c5ccccc5)nc4c3)c3c(N)nccn32)C1 [Linsitinib] + CC(=O)Nc1cccc(-n2c(=O)n(C3CC3)c(=O)c3c(Nc4ccc(I)cc4F)n(C)c(=O)c(C)c32)c1 [Trametinib] (partner 0.02 µM)
Summary of the method: as §1

[4] = compound: Cc1ccc(C(=O)N(CCCN)[C@@H](c2nc3cc(Cl)ccc3c(=O)n2Cc2ccccc2)C(C)C)cc1 [Ispinesib] + Cc1cc(Nc2cc(N3CCN(C)CC3)nc(Sc3ccc(NC(=O)C4CC4)cc3)n2)n[nH]1 [Tozasertib] (partner 0.1 µM)
Summary of the method: as §1

Cell Line | relative viability ([1]; first compound 0.01 µM) | relative viability ([1]; first compound 0.03162 µM) | relative viability ([1]; first compound 0.1 µM) | relative viability ([1]; first compound 1 µM) | relative viability ([2]; first compound 0.01 µM) | relative viability ([2]; first compound 0.03162 µM) | relative viability ([2]; first compound 0.1 µM) | relative viability ([2]; first compound 1 µM) | relative viability ([3]; first compound 0.01 µM) | relative viability ([3]; first compound 0.03162 µM) | relative viability ([3]; first compound 0.1 µM) | relative viability ([3]; first compound 1 µM) | relative viability ([4]; first compound 0.001 µM) | relative viability ([4]; first compound 0.003162 µM) | relative viability ([4]; first compound 0.01 µM) | relative viability ([4]; first compound 0.03162 µM) | relative viability ([4]; first compound 0.1 µM) | relative viability ([1]; first compound 0.3162 µM) | relative viability ([2]; first compound 0.3162 µM) | relative viability ([3]; first compound 0.3162 µM)
HOP-62 | 0.699 | 0.57 | 0.682 | 0.36 | 0.583 | 0.577 | 0.769 | 0.298 | 0.405 | 0.39 | 0.427 | 0.368 | 0.373 | 0.47 | 0.389 | 0.449 | 0.406 |  |  | 
IA-LM | 0.975 | 0.829 | 1.06 | 0.499 |  |  |  |  |  |  |  |  |  |  |  |  |  | 0.315 |  | 
LC-2-ad | 0.719 | 0.693 | 0.692 | 0.443 | 0.862 | 0.816 | 0.814 | 0.54 | 0.906 | 0.718 | 0.942 | 0.827 | 0.42 | 0.52 | 0.384 | 0.322 | 0.241 | 0.487 | 0.805 | 0.864
LCLC-97TM1 | 0.756 | 0.711 | 0.674 | 0.191 | 0.299 | 0.271 | 0.317 | 0.271 | 0.215 | 0.174 | 0.156 | 0.196 | 0.196 | 0.143 | 0.215 | 0.173 | 0.191 | 0.103 | 0.162 | 0.171
LCLC-103H | 0.775 | 0.68 | 0.836 | 0.605 | 0.785 | 0.721 | 0.84 | 0.634 | 0.658 | 0.56 | 0.688 | 0.647 | 0.5 | 0.608 | 0.584 | 0.382 | 0.485 | 0.429 | 0.9 | 0.632
LK-2 | 0.237 | 0.335 | 0.178 | 0.176 | 0.295 | 0.482 | 0.245 | 0.154 | 0.892 | 0.626 | 0.599 | 0.643 | 0.159 | 0.175 | 0.183 | 0.158 | 0.158 | 0.275 | 0.179 | 0.39
LOU-NH91 | 0.983 | 0.817 | 0.914 | 0.76 | 0.763 | 0.701 | 0.742 | 0.58 | 0.766 | 0.727 | 0.779 | 0.715 | 0.677 | 0.638 | 0.76 | 0.584 | 0.347 | 0.735 | 0.693 | 0.56
LU99A | 0.492 | 0.466 | 0.524 | 0.291 | 0.285 | 0.435 | 0.371 | 0.196 | 0.524 | 0.602 | 0.528 | 0.493 | 0.261 | 0.282 | 0.29 | 0.262 | 0.273 |  |  | 
LXF-289 | 0.735 | 0.69 | 0.755 | 0.729 | 1.04 | 1.04 | 1.13 | 1.04 | 0.641 | 0.535 | 0.674 | 0.665 | 0.235 | 0.171 | 0.175 | 0.151 | 0.152 | 0.473 | 0.731 | 0.519
NCI-H520 | 0.802 | 0.689 | 0.722 | 0.695 |  |  |  |  | 0.618 | 0.64 | 0.641 | 0.712 | 0.419 | 0.466 | 0.41 | 0.499 | 0.422 |  |  | 
NCI-H661 | 0.76 | 0.829 | 0.75 | 0.825 |  |  |  |  | 0.657 | 0.616 | 0.533 | 0.548 | 0.355 | 0.396 | 0.384 | 0.379 | 0.369 | 0.699 |  | 0.598
NCI-H1623 |  |  |  |  |  |  |  |  |  |  |  |  | 0.404 | 0.719 | 0.473 | 0.394 | 0.324 |  |  | 
NCI-H1650 | 0.51 | 0.505 | 0.621 | 0.377 |  |  |  |  | 0.592 | 0.524 | 0.537 | 0.349 | 0.382 | 0.364 | 0.397 | 0.139 | 0.257 | 0.386 |  | 0.464
NCI-H1703 |  |  |  |  | 0.158 | 0.142 | 0.112 | 0.12 |  |  |  |  |  |  |  |  |  |  |  | 
NCI-H1792 |  |  |  |  | 0.74 | 0.684 | 0.539 | 0.277 | 0.506 | 0.432 | 0.335 | 0.335 |  |  |  |  |  |  | 0.326 | 0.32
NCI-H2009 | 0.725 | 0.699 | 0.796 | 0.669 |  |  |  |  | 0.275 | 0.266 | 0.256 | 0.242 | 0.788 | 0.837 | 0.786 | 0.706 | 0.489 | 0.58 |  | 0.307
NCI-H2023 | 0.71 | 0.327 | 0.903 | 0.398 |  |  |  |  | 0.487 | 0.6 | 0.479 | 0.293 | 0.378 | 0.399 | 0.378 | 0.211 | 0.202 | 0.196 |  | 0.206
NCI-H2228 | 0.593 | 0.409 | 0.664 | 0.476 |  |  |  |  | 0.569 | 0.595 | 0.378 | 0.363 | 0.299 | 0.28 | 0.236 | 0.152 | 0.365 | 0.465 |  | 0.347
SK-LU-1 | 0.71 | 0.557 | 0.788 | 0.742 |  |  |  |  | 0.551 | 0.349 | 0.538 | 0.534 | 0.393 | 0.335 | 0.31 | 0.288 | 0.289 | 0.75 |  | 0.471
SK-MES-1 | 1.08 | 0.991 | 1.14 | 0.779 |  |  |  |  | 0.516 | 0.484 | 0.556 | 0.521 | 0.983 | 1.03 | 0.949 | 0.217 | 0.215 | 0.637 |  | 0.503
SW 1573 | 0.934 | 0.575 | 0.786 | 0.518 |  |  |  |  | 0.671 | 0.576 | 0.646 | 0.412 | 0.18 | 0.19 | 0.174 | 0.194 | 0.131 | 0.26 |  | 0.385
